Results reported in US7282340B2, “Methods for identifying an analog that promotes nerve regeneration” (Oregon Health Sciences University, priority 1997, dated 2007).
Where “and” joins values, the source holds several entries; their conditions need not be identical. Identical values can stand only once. Marks after values point to notes of the source that are not given here.

Experiments:
rat sciatic nerve [1] = assay: Functional recovery after sciatic nerve crush; assay type: in vivo, Sprague-Dawley rats
Protocol: (§1) Animals and surgical procedure. Ten six-week-old Sprague-Dawley rats were anesthetized with 2% halothane, the right sciatic nerve exposed, and the nerve crushed twice (for a total of 30 sec using a No. 7 Dumont jeweler's forceps) at the level of the hip. The crush site was marked by tying a sterile 9-0 suture through the perineurial sheath.
(§2) Preparation and administration of V-10,367. V-10,367-HCl (molecular weight, 639.18) was dissolved in vehicle comprising 40% propylene glycol:10% ethanol:50% water. Fresh solutions were prepared at the time of each injection. Three rats received subcutaneous injections (200 mg/kg) every 12 hours (beginning immediately after the nerve crush; totaling 400 mg/kg/day) in the back of the neck using a 25 g needle. Control animals (n=3) received injections every 12 hours of vehicle only. An additional control group (n=3) received daily injections of saline. Animals were weighed daily and the weights plotted over the 18-day period of the study.
Two separate additional studies were performed. In the first study, three axotomized rats received a single daily subcutaneous injection (200 mg/kg) as above. In the second study, V-10,367 was delivered as to axotomized rats as a continuous infusion. Osmotic pumps (Alza, Palo Alto, Calif.) model 2ML2 filled with V-10,367-HCl (200 mg/ml) or vehicle (two per group) were implanted under the skin on the left side of the animal.
Behavioral assessment. Functional recovery was assessed in FK506-treated animals used for morphological study only. Animals were examined blindly by two investigators daily until the day of perfusion (18 days). […] To obtain records during walking, the hind feet were marked with tempera paint and the animals allowed to freely walk across a sheet of paper between 14-18 days. Toe spread during walking was defined as the distance between the first and fifth digits, measured to the nearest 0.5 mm; three foot prints were analyzed from each animal. This analysis represents a reliable and reproducible index of functional recovery which, unlike the sciatic nerve function index, is not influenced by how fast the animal walks (Walker et al., Restor. Neurol. Neurosci. 6:189-193, 1994).

FKBP-12 = FKBP-12 (Homo sapiens, UniProt P62942); assay: FKBP-12 inhibition; assay type: biochemical
Source text: Assays for inhibition of FKBP-12 rotamase activity are described in Harding et al. (Nature 341:758-760, 1989), Siekierka et al., Nature 341:755-757, 1989, and U.S. Pat. No. 5,654,332, for example. Chymotrypsin is able to cleave p-nitroanilide from the trans form of the artificial substrate N-succinyl-Ala-Ala-Pro-Phe-p-nitroanilide, but not from the cis form. The assays of Harding et al. and Siekierka et al. employ a reaction mixture that includes the cis form of N-succinyl-Ala-Ala-Pro-Phe-p-nitroanilide, FKBP-12, a test compound, and chymotrypsin, and spectrophotometrically measure the release of p-nitroanilide as a result of isomerization of the substrate.

[2] = Single-dose pharmacokinetics in the rat; assay type: in vivo, Sprague-Dawley rat
Protocol: Pharmacokinetics of V-10,367. To determine the appropriate daily dose of V-10,367 for administration to rats, single-dose pharmacokinetics of V-10,367 were evaluated in the rat following intravenous and subcutaneous dosing. […] Since these concentrations were sufficiently above the 10 nM concentration needed to cause neurite extension in vitro, a subcutaneous dose of 200 mg/kg twice daily was selected for subsequent experiments.

[3] = system: SH-SY5Y human neuroblastoma cells; assay: Neurite outgrowth (neurite length) in NGF-treated SH-SY5Y cells; assay type: cell-based; conditions: for Mean neurite length: mean ± SEM
Protocol: Cell cultures. SH-SY5Y human neuroblastoma cells were maintained in DMEM medium (GIBCO) supplemented with 10% fetal calf serum (SIGMA), 50 IU>mL penicillin, and […] streptomycin (GIBCO) at 37° C. in 7% CO^2. Cells were plated in six-well plates at 1×10^6 cells/well and treated with […] aphidicolin (SIGMA). At five days, cells were washed, treated with nerve growth factor (NGF) (Boehringer Mannheim, Indianapolis, Ind.) at 10 ng/mL (to induce process outgrowth) in the presence or absence of V-10,367 (1, 10, or 100 nM) (Armistead et al., Acta Cryst., D51:522-528, 1995; FIG. 1). Media was changed at 96 hours and replaced with fresh media with or without the compounds (NGF and V-10,367) for an additional 72 hours (total time, 168 hours). All experiments were run in duplicate wells and repeated at least twice for reproducibility.
Light morphometry of neurite lengths. […] Neurite lengths were measured on photographic prints using a Houston Instrument HI-PAD digitizing tablet connected to an IBM XT computer with appropriate software (Bioquant IV, R&M Biometrics, Nashville, Tenn.); only those processes greater than two times the cell body length were measured. Data from identically treated wells were not different and were therefore combined. […] Histograms were compared using a Mann-Whitney U test, which makes no assumptions about the shape of the distribution.

[4] = rat, in vivo, sc, 400 mg/kg/day
Protocol: as §2

soleus nerve = assay: Electron microscopic morphometry of axonal areas in soleus nerve after sciatic nerve crush; assay type: in vivo, Sprague-Dawley rats
Protocol: as §1
as §2, with “Animals were weighed daily and the weights plotted over the 18-day period of the study.” left out
Electron microscopic analysis of axons. […] Axonal areas of both myelinated and unmyelinated fibers were determined by tracing the axolemma using a Houston Instrument HI-PAD digitizing tablet connected to an IBM XT computer with appropriate software (Bioquant IV, R&M biometrics, Nashville, Tenn.). […] For each group (i.e., 400 and 200 mg/kg/day V-10,367-treated and vehicle-treated), mean values and standard areas were calculated for the whole population of axons. […]

rat sciatic nerve [5] = conditions: cited from earlier work
[6] = continuous infusion 18 days via osmotic minipump
[7] = single intravenous dose 17.7 mg/kg
[8] = subcutaneous injection 174 mg/kg

Sequence of FKBP-12 (P62942 whole entry, species assumed): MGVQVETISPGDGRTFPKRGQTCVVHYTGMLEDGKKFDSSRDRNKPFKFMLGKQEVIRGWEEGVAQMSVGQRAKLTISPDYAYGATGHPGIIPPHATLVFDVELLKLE

## COc1cc(C(=O)C(=O)N2CCCC[C@H]2C(=O)OC(CCCc2ccccc2)CCCc2cccnc2)cc(OC)c1OC.Cl (some centres unmarked) [V-10,367]
Rat sciatic nerve [1]; axotomized side, n=3, vehicle 11.0±0.58, uninjured side 19.5±0.39
  Toe spread: distance between the first and fifth digits: 13.0±0.41 mm
Rat sciatic nerve [1]; [6]
  Functional recovery compared to vehicle-treated controls: earlier functional recovery
Rat sciatic nerve [1]; oral gavage, rat sciatic nerve crush
  Efficacy upon oral (gavage) administration: effective
Rat sciatic nerve [1]; s.c. V-10,367, n=3, mean ± SEM, vehicle 15.3±0.33
  Days until onset of ability to right the foot and move the toes (onset): 13.7 ± 0.33 days
Rat sciatic nerve [1]; s.c. V-10,367, n=3, mean ± SEM, vehicle 16.3±0.33
  Days until ability to walk on hind feet and toes (walking): 14 ± 0 days
FKBP-12
  FKBP-12 inhibition: potent FKBP-12 inhibitor
[2]; [7]
  Average blood clearance: 5.04 L/h/kg
  Elimination half-life: about 1.3 hours
  Volume of distribution at steady state: 2.76 L/kg
[2]; [8]
  Average Cmax: 0.171 µg/mL
  Cmax: 0.285 µM
[2]; subcutaneous injection 174 mg/kg, 174 mg/kg
  Trough concentrations at 8 hours post-dose: 27-252 ng/mL and 45-420 nM
[2]; subcutaneous vs intravenous
  Apparent half-life following subcutaneous administration: prolonged
[3]; 1 nM V-10,367 + NGF 10 ng/mL, 96 h
  Mean neurite length: 110 ± 2.2 μm
[3]; 1 nM V-10,367 + NGF 10 ng/mL, 168 h
  Mean neurite length: 136 ± 5.8*^,Δ μm
[3]; 10 nM V-10,367 + NGF 10 ng/mL, 96 h
  Mean neurite length: 138 ± 9.4 μm
[3]; 10 nM V-10,367 + NGF 10 ng/mL, 168 h
  Mean neurite length: 148 ± 8.6*^,††,Δ μm
[3]; 100 nM V-10,367 + NGF 10 ng/mL, 96 h
  Mean neurite length: 121 ± 6.0 μm
[3]; 100 nM V-10,367 + NGF 10 ng/mL, 168 h
  Mean neurite length: 118 ± 4.2*^,† μm
[3]; 1-100 nM with NGF 10 ng/mL
  Number of processes per cell or branching of cell processes: No change
[3]; tested at 1, 10, 100 nM with NGF 10 ng/mL
  Concentration of maximal effect on neurite length: 10 nM
[4]
  Tolerability: well tolerated
Soleus nerve; 18 days after axotomy, subcutaneous injections
  Increase of mean axonal areas compared to vehicle: 50%
Soleus nerve; [6]
  Increase of mean axonal calibers compared to vehicle: 40%

## cyclosporin A
Rat sciatic nerve [5]; rat, in vivo
  Nerve regeneration in the rat sciatic nerve following a crush injury: does not increase nerve regeneration

## CC[C@@H]1/C=C(\C)[C@@H](O)[C@H](C)C[C@H](OC)[C@H]2O[C@@](O)(C(=O)C(=O)N3CCCC[C@H]3C(=O)O[C@H](/C(C)=C/[C@@H]3CC[C@@H](O)[C@H](OC)C3)[C@H](C)[C@@H](O)CC1=O)[C@H](C)C[C@@H]2OC [L-685,818, 18-OH, 21-ethyl-FK506]
Rat sciatic nerve [5]; topical administration to the nerve crush site
  Functional recovery: accelerate functional recovery
